Laboratory results: patent US20170275270A1, “BENZYL SUBSTITUTED INDAZOLES” (Bayer Pharma Aktiengesellschaft, priority 2014, published 2017)
Where a name gives a salt, the structure may show the parent alone. Read-outs that look alike come from different tables or passages of the source.

Columns and labels:
[1] = target: T1, catalytic domain of human Bub1 (amino acids 704-1085) (Homo sapiens, UniProt O43683); test: Bub1 kinase assay (TR-FRET); type: biochemical
T1 construct: catalytic domain of human Bub1 (amino acids 704-1085); His6 (N); made in house; host or cells: Hi5 insect cells
T1 sequence (O43683 704-1085): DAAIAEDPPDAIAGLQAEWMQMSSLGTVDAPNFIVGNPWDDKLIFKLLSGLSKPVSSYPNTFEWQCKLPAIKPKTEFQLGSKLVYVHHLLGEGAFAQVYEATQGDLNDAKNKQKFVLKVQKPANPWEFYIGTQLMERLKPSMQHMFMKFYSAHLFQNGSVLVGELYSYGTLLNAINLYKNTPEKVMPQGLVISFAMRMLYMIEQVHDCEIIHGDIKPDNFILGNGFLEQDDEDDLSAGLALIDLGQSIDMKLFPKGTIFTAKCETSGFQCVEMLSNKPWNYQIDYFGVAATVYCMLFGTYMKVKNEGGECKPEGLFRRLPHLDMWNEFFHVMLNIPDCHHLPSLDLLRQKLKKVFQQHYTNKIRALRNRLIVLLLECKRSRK
In short: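 TR-FRET read-out (Eu-anti-mouse IgG/anti-phosphoserine antibody to streptavidin-XL665 on biotinylated peptide) after EDTA stop and 1 h complex formation at 22° C. Kinase reaction ran 60 min at 22° C with 1:3.4 serial dilutions from 2 mM DMSO stocks. IC50 from 4-parameter logistic fit of normalized inhibition.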

[2] = target: Bub1 (Homo sapiens, UniProt O43683); test: Formation-Assay: phosphorylation status of histone 2A by inhibition of kinase activity of Bub1; type: cell-based; conditions: Biological Assay 4.1: H2A Formation IC50, co-treatment with Nocodazole 1 μg/ml, 16 h
Bub1, sequence (O43683 whole entry): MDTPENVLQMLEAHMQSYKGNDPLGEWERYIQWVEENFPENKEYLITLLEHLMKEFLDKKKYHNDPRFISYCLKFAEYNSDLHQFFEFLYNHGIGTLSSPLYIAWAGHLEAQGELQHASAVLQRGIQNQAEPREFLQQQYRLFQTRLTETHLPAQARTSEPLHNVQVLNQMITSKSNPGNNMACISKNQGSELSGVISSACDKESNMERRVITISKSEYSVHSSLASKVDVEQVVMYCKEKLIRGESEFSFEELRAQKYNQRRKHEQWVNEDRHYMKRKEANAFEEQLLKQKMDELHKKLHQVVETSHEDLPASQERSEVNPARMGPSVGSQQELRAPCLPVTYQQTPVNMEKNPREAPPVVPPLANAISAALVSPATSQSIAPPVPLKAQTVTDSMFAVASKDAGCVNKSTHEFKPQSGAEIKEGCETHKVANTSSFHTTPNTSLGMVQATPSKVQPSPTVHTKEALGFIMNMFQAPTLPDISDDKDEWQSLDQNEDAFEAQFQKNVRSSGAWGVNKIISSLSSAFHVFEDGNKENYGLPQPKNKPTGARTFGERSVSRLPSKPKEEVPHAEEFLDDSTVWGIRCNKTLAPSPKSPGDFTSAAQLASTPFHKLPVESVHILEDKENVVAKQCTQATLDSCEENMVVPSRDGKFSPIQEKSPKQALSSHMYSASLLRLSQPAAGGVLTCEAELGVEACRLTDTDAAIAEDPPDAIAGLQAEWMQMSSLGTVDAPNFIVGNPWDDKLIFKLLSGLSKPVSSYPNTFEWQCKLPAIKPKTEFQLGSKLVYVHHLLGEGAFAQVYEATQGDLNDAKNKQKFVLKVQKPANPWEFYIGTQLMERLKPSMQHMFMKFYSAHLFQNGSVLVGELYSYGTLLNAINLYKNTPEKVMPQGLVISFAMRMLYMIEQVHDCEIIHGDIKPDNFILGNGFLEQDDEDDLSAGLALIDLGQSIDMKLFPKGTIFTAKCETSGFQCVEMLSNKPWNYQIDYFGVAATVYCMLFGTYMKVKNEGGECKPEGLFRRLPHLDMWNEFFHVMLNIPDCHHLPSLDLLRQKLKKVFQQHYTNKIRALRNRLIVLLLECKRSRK
Protocol: Biological Assay 4.1: Formation-Assay
Cell-Based Mechanistic Assay: Changes of Phosphorylation Status of Histone 2A by Inhibition of Kinase Activity of Bub1
This assay determines the suppression of histone 2A phosphorylation by a Bub1 kinase inhibitor during co-treatment with Nocodazole. 25000 cells (cells were ordered from ATCC) were seeded in 96 well plate for 5 h at 37° C. Cells were treated with Nocodazole (1 μg/ml) and varying concentrations (between 3 nM and 10 μM) of test compounds for 16 h. Cells were fixed (20 min, Fixing solution R&D), washed three times with PBS and blocked with Odyssey blocking buffer before incubating with the primary antibody against phosphorylated H2A (5 μg/ml ABIN482721) overnight at 2-8° C. After washing, secondary IRDye-labeled antibody mix with cell stains was added for 1 h and washed again with PBS. Plates were scanned with LiCor Odyssey Infrared Imager CLx at 800 nm for P-H2A and at 700 nm for cell stains Draq5/Sapphire. The quotient of 800 nm and 700 nm for Nocodazole only treated cells was set as 100% and the quotient of 800 nm and 700 nm of untreated cells was set as 0%.
Histone H2A is an immediate intracellular substrate of Bub1 kinase. Determination of the phosphorylation status of Histone H2A provides a direct measure of the intracellular activity of Bub1 kinase.

[3] = test system: HeLa; test: Proliferation assay (HeLa cell line); conditions: Homo sapiens, 96 h, read-out: Biological Assay 2: Proliferation assay (HeLa cell line) median IC50;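 note: crystal violet staining of cell number, scaled between a plate stained before dosing (0%) and cells left untreated (100%), compounds tested at 0.001-10 µM, IC50 via 4-parameter fit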
[4] = test system: HeLa human cervical tumor cells; test: Proliferation assay (HeLa+Paclitaxel); conditions: read-out: Biological Assay 3: HeLa + Paclitaxel IC50, 3 nM paclitaxel, crystal violet;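 note: compounds at 0.001-10 µM added 4 h after paclitaxel, 92 h exposure, absorbance normalized to zero-point plate (0%) and untreated cells (100%), IC50 from 4-parameter fit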
[5] = Biological Assay 1: Bub1 kinase assay median IC50, 10 μM ATP
[6] = 10 μM ATP, read-out: Biological Assay 1: Bub1 kinase assay median IC50

Which results are given for `C[S@@+]([O-])CCCc1cnc(-c2nn(Cc3c(F)cc(OCCO)cc3F)c3ccccc23)nc1Nc1ccncc1` [Example 2-4-3, 2-[3,5-difluoro-4-({3-[5-{3-[(R)-methylsulfinyl]propyl}-4-(pyridin-4-ylamino)pyrimidin-2-yl]-1H-indazol-1-yl}methyl)phenoxy]ethanol]?
IC50 [1, 5]: 940 nM; IC50 [2]: 1000 nM; IC50 [3]: > 10000 nM; IC50 [4]: > 10000 nM

Which results are given for `COc1cnccc1Nc1nc(-c2nn(Cc3c(F)cc(OCCO)cc3F)c3ccccc23)nc2c1CCC2` [Example 2-4-5, 2-{3,5-difluoro-4-[(3-{4-[(3-methoxypyridin-4-yl)amino]-6,7-dihydro-5H-cyclopenta[d]pyrimidin-2-yl}-1H-indazol-1-yl)methyl]phenoxy}ethanol]?
IC50 [1, 6]: 28 nM; IC50 [2]: 3900 nM; IC50 [3]: 2600 nM; IC50 [4]: 180 nM

For `OCCOc1cc(F)c(Cn2nc(-c3nc4c(c(Nc5ccnnc5)n3)CCC4)c3ccccc32)c(F)c1` [Example 2-4-10, 2-[3,5-difluoro-4-({3-[4-(pyridazin-4-ylamino)-6,7-dihydro-5H-cyclopenta[d]pyrimidin-2-yl]-1H-indazol-1-yl}methyl)phenoxy]ethanol, salt with hydrochloric acid], which IC50 [1, 5] is on record?
Its IC50 is 18 nM.

What about the IC50 [2] of the same compound?
The IC50 was 10 nM.

And the IC50 [3]?
Its IC50 is greater than 10000 nM.

And the IC50 [4]?
The IC50 was 1200 nM.

For `Cc1cc(Nc2nc(-c3nn(Cc4c(F)cc(OCCO)cc4F)c4ccccc34)nc3c2CCC3)ncn1` [Example 2-4-11, 2-{3,5-difluoro-4-[(3-{4-[(6-methylpyrimidin-4-yl)amino]-6,7-dihydro-5H-cyclopenta[d]pyrimidin-2-yl}-1H-indazol-1-yl)methyl]phenoxy}ethanol], which IC50 [1, 5] is on record?
Its IC50 is 88 nM.

And the IC50 [2]?
The IC50 was 1900 nM.

And the IC50 [3]?
The IC50 was greater than 10000 nM.

What about the IC50 [4] of the same compound?
Its IC50 is 120 nM.

Which IC50 [1, 6] does the source give for `Cc1cc(Nc2nc(-c3nn(Cc4c(F)cc(OCCO)cc4F)c4ccccc34)nc3c2CCC3)ccn1` [Example 2-4-12, 2-{3,5-difluoro-4-[(3-{4-[(2-methylpyridin-4-yl)amino]-6,7-dihydro-5H-cyclopenta[d]pyrimidin-2-yl}-1H-indazol-1-yl)methyl]phenoxy}ethanol] here?
Its IC50 is 48 nM.

What about the IC50 [2] of the same compound?
The IC50 was 2300 nM.

What about the IC50 [3] of the same compound?
The IC50 was 1100 nM.

And the IC50 [4]?
The IC50 was 3300 nM.

What does the source list for `CCOc1cc(F)c(Cn2nc(-c3nc(CO)cc(Nc4ccncc4C)n3)c3ccccc32)c(F)c1` [Example 2-6-4, {2-[1-(4-ethoxy-2,6-difluorobenzyl)-1H-indazol-3-yl]-6-[(3-methylpyridin-4-yl)amino]pyrimidin-4-yl}methanol]?
IC50 [1, 6]: 9.1 nM; IC50 [2]: 52 nM; IC50 [3]: 1400 nM; IC50 [4]: 170 nM

How did the IC50 [1, 5] turn out when `Cc1nccc(Nc2nc(-c3nn(Cc4c(F)cc(O)cc4F)c4ccccc34)nc3c2CCC3)n1` [Example 2-6-12, 3,5-difluoro-4-[(3-{4-[(2-methylpyrimidin-4-yl)amino]-6,7-dihydro-5H-cyclopenta[d]pyrimidin-2-yl}-1H-indazol-1-yl)methyl]phenol] was run?
The IC50 was 44 nM.

And the IC50 [2]?
The IC50 was 2300 nM.

And the IC50 [3]?
The IC50 was greater than 10000 nM.

And the IC50 [4]?
Its IC50 is 2100 nM.

What does the source list for `CC(=O)Nc1cc(Nc2nc(-c3nn(Cc4c(F)cc(OCCO)cc4F)c4ccccc34)ncc2C2CCN(CC(F)(F)F)CC2)ccn1` [Example 2-6-13, N-{4-[(2-{1-[2,6-difluoro-4-(2-hydroxyethoxy)benzyl]-1H-indazol-3-yl}-5-[1-(2,2,2-trifluoroethyl)piperidin-4-yl]pyrimidin-4-yl)amino]pyridin-2-yl}acetamide]?
IC50 [1, 5]: 53 nM; IC50 [2]: 8.4 nM; IC50 [3]: 9700 nM; IC50 [4]: 390 nM

How did the IC50 [1, 5] turn out when `OCCOc1cc(F)c(Cn2nc(-c3ncc(C4CCN(CC(F)(F)F)CC4)c(Nc4ccncc4Cl)n3)c3ccccc32)c(F)c1` [Example 2-6-14, 2-{4-[(3-{4-[(3-chloropyridin-4-yl)amino]-5-[1-(2,2,2-trifluoroethyl)piperidin-4-yl]pyrimidin-2-yl}-1H-indazol-1-yl)methyl]-3,5-difluorophenoxy} ethanol] was run?
Its IC50 is 36 nM.

What about the IC50 [2] of the same compound?
Its IC50 is 7.1 nM.

And the IC50 [3]?
Its IC50 is 2400 nM.

And the IC50 [4]?
Its IC50 is 340 nM.

With `OCCOc1cc(F)c(Cn2nc(-c3ncc(C4CCN(CCC(F)(F)F)CC4)c(Nc4ccncc4Cl)n3)c3ccccc32)c(F)c1` [Example 2-6-15, 2-{4-[(3-{4-[(3-chloropyridin-4-yl)amino]-5-[1-(3,3,3-trifluoropropyl)piperidin-4-yl]pyrimidin-2-yl}-1H-indazol-1-yl)methyl]-3,5-difluorophenoxy} ethanol] as the compound, how does the IC50 [1, 5] read?
Its IC50 is 31 nM.

And the IC50 [2]?
Its IC50 is 19 nM.

And the IC50 [3]?
Its IC50 is 2200 nM.

And the IC50 [4]?
The IC50 was 180 nM.

`Cc1nccc(Nc2nc(-c3nn(Cc4c(F)cc(OCCO)cc4F)c4ccccc34)ncc2C2CCN(CC(F)(F)F)CC2)n1` [Example 2-6-16, 2-{3,5-difluoro-4-[(3-{4-[(2-methylpyrimidin-4-yl)amino]-5-[1-(2,2,2-trifluoroethyl)piperidin-4-yl]pyrimidin-2-yl}-1H-indazol-1-yl)methyl]phenoxy}ethanol] was tested. Which IC50 [1, 5] did it give?
The IC50 was 550 nM.

And the IC50 [2]?
Its IC50 is 0.56 nM.

What about the IC50 [3] of the same compound?
Its IC50 is greater than 10000 nM.

And the IC50 [4]?
Its IC50 is 60 nM.

Which IC50 [1, 5] does the source give for `Cc1nccc(Nc2nc(-c3nn(Cc4c(F)cc(OCCO)cc4F)c4ccccc34)nc3c2CCC3)n1` [Example 2-6-18, 2-{3,5-difluoro-4-[(3-{4-[(2-methylpyrimidin-4-yl)amino]-6,7-dihydro-5H-cyclopenta[d]pyrimidin-2-yl}-1H-indazol-1-yl)methyl]phenoxy}ethanol] here?
Its IC50 is 30 nM.

What about the IC50 [2] of the same compound?
Its IC50 is 0.79 nM.

And the IC50 [3]?
The IC50 was greater than 10000 nM.

What about the IC50 [4] of the same compound?
Its IC50 is 90 nM.

What does the source list for `OCCOc1cc(F)c(Cn2nc(-c3nc4c(c(Nc5ccncn5)n3)CCC4)c3ccccc32)c(F)c1` [Example 2-6-19, 2-[3,5-difluoro-4-({3-[4-(pyrimidin-4-ylamino)-6,7-dihydro-5H-cyclopenta[d]pyrimidin-2-yl]-1H-indazol-1-yl}methyl)phenoxy]ethanol]?
IC50 [1, 5]: 8.9 nM; IC50 [2]: 2.6 nM; IC50 [3]: > 10000 nM; IC50 [4]: 140 nM

Which IC50 [1, 6] does the source give for `Cc1cc(Nc2nc(-c3nn(Cc4c(F)cc(OCCO)cc4F)c4ccccc34)nc3c2CCC3)c(C)cn1` [Example 2-6-20, 2-{4-[(3-{4-[(2,5-dimethylpyridin-4-yl)amino]-6,7-dihydro-5H-cyclopenta[d]pyrimidin-2-yl}-1H-indazol-1-yl)methyl]-3,5-difluorophenoxy} ethanol] here?
The IC50 was 66 nM.

And the IC50 [2]?
Its IC50 is 1.8 nM.

What about the IC50 [3] of the same compound?
Its IC50 is 3400 nM.

And the IC50 [4]?
The IC50 was 140 nM.

For `Cc1cc(Nc2nc(-c3nn(Cc4c(F)cc(OCCO)cc4F)c4ccccc34)nc3c2CCC3)c(F)cn1` [Example 2-6-21, 2-{3,5-difluoro-4-[(3-{4-[(5-fluoro-2-methylpyridin-4-yl)amino]-6,7-dihydro-5H-cyclopenta[d]pyrimidin-2-yl}-1H-indazol-1-yl)methyl]phenoxy}ethanol], which IC50 [1, 5] is on record?
The IC50 was 11 nM.

What about the IC50 [2] of the same compound?
The IC50 was 84 nM.

What about the IC50 [3] of the same compound?
The IC50 was 3400 nM.

What about the IC50 [4] of the same compound?
Its IC50 is 170 nM.

How did the IC50 [1, 5] turn out when `Cc1nccc(Nc2nc(-c3nn(Cc4c(F)cc(OCCO)cc4F)c4ccccc34)nc3c2CC(C)(C)C3)n1` [Example 2-6-22, 2-{4-[(3-{6,6-dimethyl-4-[(2-methylpyrimidin-4-yl)amino]-6,7-dihydro-5H-cyclopenta[d]pyrimidin-2-yl}-1H-indazol-1-yl)methyl]-3,5-difluorophenoxy} ethanol] was run?
Its IC50 is 81 nM.

What about the IC50 [2] of the same compound?
The IC50 was 180 nM.

And the IC50 [3]?
The IC50 was 9200 nM.

And the IC50 [4]?
The IC50 was 99 nM.

`Cc1nccc(Nc2nc(-c3nn(Cc4c(F)cc(OCCO)cc4F)c4ccccc34)ncc2C2CCN(CC3CC3)CC2)n1` [Example 2-6-23, 2-{4-[(3-{5-[1-(cyclopropyl-methyl)piperidin-4-yl]-4-[(2-methylpyrimidin-4-yl)amino]pyrimidin-2-yl}-1H-indazol-1-yl)methyl]-3,5-difluorophenoxy} ethanol] was tested. Which IC50 [1, 5] did it give?
Its IC50 is 82 nM.

And the IC50 [2]?
Its IC50 is 12 nM.

And the IC50 [3]?
The IC50 was 3000 nM.

What about the IC50 [4] of the same compound?
Its IC50 is 64 nM.

With `Cc1nccc(Nc2nc(-c3nn(Cc4c(F)cc(OCCO)cc4F)c4ccccc34)nc3c2CCC(C)(C)C3)n1` [Example 2-6-24, 2-{4-[(3-{7,7-dimethyl-4-[(2-methylpyrimidin-4-yl)amino]-5,6,7,8-tetrahydroquin-azolin-2-yl}-1H-indazol-1-yl)methyl]-3,5-difluorophenoxy} ethanol] as the compound, how does the IC50 [1, 5] read?
Its IC50 is 120 nM.

And the IC50 [2]?
The IC50 was 14 nM.

What about the IC50 [3] of the same compound?
Its IC50 is greater than 10000 nM.

And the IC50 [4]?
The IC50 was 150 nM.

With `OCCOc1cc(F)c(Cn2nc(-c3nc(CN4CCOCC4)cc(Nc4ccnnc4)n3)c3ccccc32)c(F)c1` [Example 2-6-37, 2-[3,5-difluoro-4-({3-[4-(morpholin-4-ylmethyl)-6-(pyridazin-4-ylamino)pyrimidin-2-yl]-1H-indazol-1-yl}methyl)phenoxy]ethanol] as the compound, how does the IC50 [1, 6] read?
Its IC50 is 40 nM.

What about the IC50 [2] of the same compound?
The IC50 was 260 nM.

And the IC50 [3]?
Its IC50 is 9500 nM.

And the IC50 [4]?
The IC50 was 2300 nM.
